In patent publication US20260272934A1 (The United States of America, as represented by the …, priority 2023, published 2026):

What was measured:
[1] = molecular target: T1, full-length Plk1 / biotinylated PBIP1 phospho-T78 peptide interaction (Homo sapiens, UniProt P53350); test: ELISA-based PBD1-binding inhibition assay; settings: at least three independent experiments; read-out: ELISA (IC50) Mean ± SEM
T1 construct: HA; EGFP; expressed in transfected cells; host or cells: HEK293A cells infected with adenovirus; total lysates

M4 = M4 (Homo sapiens, UniProt P08173); test: Off-target primary and secondary screen; format: binding; settings: 10 mM sample
SERT = SERT (Homo sapiens, UniProt P31645); test: Off-target primary and secondary screen; format: binding; settings: 10 mM sample
KOR = KOR (Homo sapiens, UniProt P41145); test: Off-target primary and secondary screen; format: binding; settings: 10 mM sample
Beta2 = Beta2 (Homo sapiens, UniProt P07550); test: Off-target primary and secondary screen; format: binding; settings: 10 mM sample
H3 = H3 (Homo sapiens, UniProt Q9Y5N1); test: Off-target primary and secondary screen; format: binding; settings: 10 mM sample
Alpha1B = Alpha1B (Homo sapiens, UniProt P35368); test: Off-target primary and secondary screen; format: binding; settings: 10 mM sample
BZP Rat brain site = test: Off-target primary and secondary screen; format: binding; settings: for Primary screen AVE (% inhib) ± SD: 10 mM sample
D3 = D3 (Homo sapiens, UniProt P35462); test: Off-target primary and secondary screen; format: binding; settings: 10 mM sample
[2] = system: multiple myeloma-derived L363 cells; test: Colorimetric MTS cell viability assay; format: cell-based
Text: • *Data from Park, J. E., et al {Park, 2023 #3387}. **Data from Alverez C. N., et al {Alverez, 2020 #3186}. N. S., Not significant; N. D., Not determined. ^a IC50 values determined from at least three independent experiments except as noted in parentheses. b A colorimetric MTS cell viability assay carried out using multiple myeloma-derived L363 cells.

PBD1 = PBD1 (Homo sapiens, UniProt P53350); test: FP-based inhibition assay; format: binding; settings: read-out: PBD1 IC50 ± SD
Procedure: In the following, PBD1-3 fluorescence polarization (FP) binding assays were carried out for determining the Plk1 specificity. […] All samples were analyzed approximately 30 min after reaction in a 384-well format using the SpectraMax Paradigm multi-mode microplate detection platform (Molecular Devices). Data were analyzed after carrying out at least three independent experiments using GraphPad Prism software version 7.

H4 = H4 (Homo sapiens, UniProt Q9H3N8); test: Off-target primary and secondary screen; format: binding; settings: 10 mM sample
5-HT2A = 5-HT2A (Homo sapiens, UniProt P28223); test: Off-target primary and secondary screen; format: binding; settings: for Primary screen AVE (% inhib) ± SD: 10 mM sample
PBR = PBR (Homo sapiens, UniProt P30536); test: Off-target primary and secondary screen; format: binding; settings: for Primary screen AVE (% inhib) ± SD: 10 mM sample
NET = NET (Homo sapiens, UniProt P23975); test: Off-target primary and secondary screen; format: binding; settings: 10 mM sample
Plk2 PBD = test: FP-based inhibition assay; format: binding; settings: N.S. = Not significant
Procedure: (§1) In the following, PBD1-3 fluorescence polarization (FP) binding assays were carried out for determining the Plk1 specificity. FP assays were carried out essentially as described previously {Liu, 2011 #2790; Qian, 2014 #1416}. All samples were analyzed approximately 30 min after reaction in a 384-well format using the SpectraMax Paradigm multi-mode microplate detection platform (Molecular Devices). Data were analyzed after carrying out at least three independent experiments using GraphPad Prism software version 7.

Plk3 PBD = test: FP-based inhibition assay; format: binding; settings: N.S. = Not significant
Procedure: as §1

D4 = D4 (Homo sapiens, UniProt P21917); test: Off-target primary and secondary screen; format: binding; settings: 10 mM sample
M3 = M3 (Homo sapiens, UniProt P20309); test: Off-target primary and secondary screen; format: binding; settings: 10 mM sample
H2 = H2 (Homo sapiens, UniProt P25021); test: Off-target primary and secondary screen; format: binding; settings: 10 mM sample
[3] = molecular target: T2, PBD1 WT or mutants (F559) (Homo sapiens, UniProt P53350, F559D); test: FP-based inhibition and U2OS imaging with PBD1/Plk1 WT or F559 mutants; format: binding; settings: in vitro and in vivo; U2OS cells 8 μM
T2 construct: the indicated PBD1 WT or mutants in the presence of various concentrations of Allopole
Procedure: Bars, mean #s.d. FIG. 7(b) depicts the results of FP-based inhibition assays for the interaction between FITC-Ahx-DPPLHS-pT-AI-NH2 and the indicated PBD1 WT or mutants in the presence of various concentrations of Allopole. Bars, mean±s.d. FIG. 7(c) depicts confocal imaging and quantification of Plk1 endogenous promoter (Pendo)-fused mGFP-Plk1 signals in U2OS cells silenced for endogenous Plk1 (siPlk1) and treated with 8 μM of Allopole for the indicated length of time (Experimental procedure at bottom, right). Arrowheads, centrosomes. Quantification of Pendo-mGFP-Plk1 signals was performed with the images acquired from three independent experiments [n=a total of 93, 53, and 79 cells for Plk1 WT samples (in order) and n=a total of 92, 64, and 76 cells for the F559D mutant samples (in order)]. Bars, mean±s.d. Arrowheads, centrosomes. ****, P<0.0001 (unpaired two-tailed t-test).

Hela cells = test: Immunoprecipitation, confocal imaging and time-lapse analyses in Hela cells; format: cell-based
Text: FIG. 5 illustrates the inhibition by Allopole of PBD1-dependent interactions and subcellular localizations leading to mitotic block in Hela cells. FIG. 5a depicts the immunoprecipitation and immunoblotting analyses.

5-HT2A, sequence (P28223 whole entry, species assumed): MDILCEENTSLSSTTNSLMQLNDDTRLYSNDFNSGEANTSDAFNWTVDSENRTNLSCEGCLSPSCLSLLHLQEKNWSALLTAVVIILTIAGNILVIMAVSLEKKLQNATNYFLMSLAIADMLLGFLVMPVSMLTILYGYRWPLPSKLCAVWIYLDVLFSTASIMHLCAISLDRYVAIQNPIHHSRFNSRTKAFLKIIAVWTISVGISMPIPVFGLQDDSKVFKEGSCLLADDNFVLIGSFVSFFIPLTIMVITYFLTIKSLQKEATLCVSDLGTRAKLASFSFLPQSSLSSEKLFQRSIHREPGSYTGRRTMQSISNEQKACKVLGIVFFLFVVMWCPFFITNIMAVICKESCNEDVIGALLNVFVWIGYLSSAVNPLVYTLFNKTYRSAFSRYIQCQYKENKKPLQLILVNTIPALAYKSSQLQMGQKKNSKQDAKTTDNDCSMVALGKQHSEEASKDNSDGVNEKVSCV
PBR, sequence (P30536 whole entry, species assumed): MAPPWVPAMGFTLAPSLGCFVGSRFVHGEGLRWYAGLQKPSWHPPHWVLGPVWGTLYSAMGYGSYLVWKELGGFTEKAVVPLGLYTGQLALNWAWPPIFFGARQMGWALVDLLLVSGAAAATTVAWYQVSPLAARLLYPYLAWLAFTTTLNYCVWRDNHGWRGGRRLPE
SERT, sequence (P31645 whole entry, species assumed): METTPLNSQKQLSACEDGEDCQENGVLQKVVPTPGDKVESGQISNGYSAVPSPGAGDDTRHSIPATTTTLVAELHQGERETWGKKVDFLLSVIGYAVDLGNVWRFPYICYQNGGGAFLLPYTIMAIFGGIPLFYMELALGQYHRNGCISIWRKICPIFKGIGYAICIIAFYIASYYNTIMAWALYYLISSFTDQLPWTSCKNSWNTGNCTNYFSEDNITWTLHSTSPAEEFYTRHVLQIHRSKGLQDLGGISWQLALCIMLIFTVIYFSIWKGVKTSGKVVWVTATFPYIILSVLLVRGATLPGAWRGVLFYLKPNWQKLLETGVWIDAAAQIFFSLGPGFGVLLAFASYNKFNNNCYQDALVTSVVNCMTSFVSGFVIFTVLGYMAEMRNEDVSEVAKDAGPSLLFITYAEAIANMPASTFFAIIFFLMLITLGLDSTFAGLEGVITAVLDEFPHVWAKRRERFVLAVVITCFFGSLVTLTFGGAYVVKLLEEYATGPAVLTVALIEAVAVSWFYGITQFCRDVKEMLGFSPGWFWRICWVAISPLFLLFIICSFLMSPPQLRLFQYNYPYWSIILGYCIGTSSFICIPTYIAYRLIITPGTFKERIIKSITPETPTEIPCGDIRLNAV
M3, sequence (P20309 whole entry): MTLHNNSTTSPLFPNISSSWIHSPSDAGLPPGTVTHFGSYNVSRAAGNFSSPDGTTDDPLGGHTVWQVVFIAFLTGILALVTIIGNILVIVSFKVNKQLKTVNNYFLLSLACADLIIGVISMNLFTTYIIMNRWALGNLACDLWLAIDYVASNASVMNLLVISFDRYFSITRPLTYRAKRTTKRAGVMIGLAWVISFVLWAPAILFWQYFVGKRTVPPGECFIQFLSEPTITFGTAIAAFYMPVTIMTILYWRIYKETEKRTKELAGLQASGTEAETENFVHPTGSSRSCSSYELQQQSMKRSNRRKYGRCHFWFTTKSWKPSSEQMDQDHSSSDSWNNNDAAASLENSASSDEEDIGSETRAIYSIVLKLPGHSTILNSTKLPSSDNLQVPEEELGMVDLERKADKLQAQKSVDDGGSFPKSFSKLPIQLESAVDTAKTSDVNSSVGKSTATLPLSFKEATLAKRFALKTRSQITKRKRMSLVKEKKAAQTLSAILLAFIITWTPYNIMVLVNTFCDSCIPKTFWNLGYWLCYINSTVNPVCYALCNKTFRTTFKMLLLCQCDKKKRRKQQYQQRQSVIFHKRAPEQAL
Beta2, sequence (P07550 whole entry): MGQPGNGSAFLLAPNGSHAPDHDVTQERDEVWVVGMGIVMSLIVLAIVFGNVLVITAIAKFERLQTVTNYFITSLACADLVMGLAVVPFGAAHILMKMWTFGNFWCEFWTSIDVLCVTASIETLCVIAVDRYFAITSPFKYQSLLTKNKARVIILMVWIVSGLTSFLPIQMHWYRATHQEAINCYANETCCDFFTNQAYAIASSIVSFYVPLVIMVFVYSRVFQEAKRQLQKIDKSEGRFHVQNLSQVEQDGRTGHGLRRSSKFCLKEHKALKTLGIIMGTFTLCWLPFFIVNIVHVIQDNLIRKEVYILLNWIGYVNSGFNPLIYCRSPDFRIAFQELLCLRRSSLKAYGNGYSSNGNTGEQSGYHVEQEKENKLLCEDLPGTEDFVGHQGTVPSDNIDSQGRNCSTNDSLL
Alpha1B, sequence (P35368 whole entry): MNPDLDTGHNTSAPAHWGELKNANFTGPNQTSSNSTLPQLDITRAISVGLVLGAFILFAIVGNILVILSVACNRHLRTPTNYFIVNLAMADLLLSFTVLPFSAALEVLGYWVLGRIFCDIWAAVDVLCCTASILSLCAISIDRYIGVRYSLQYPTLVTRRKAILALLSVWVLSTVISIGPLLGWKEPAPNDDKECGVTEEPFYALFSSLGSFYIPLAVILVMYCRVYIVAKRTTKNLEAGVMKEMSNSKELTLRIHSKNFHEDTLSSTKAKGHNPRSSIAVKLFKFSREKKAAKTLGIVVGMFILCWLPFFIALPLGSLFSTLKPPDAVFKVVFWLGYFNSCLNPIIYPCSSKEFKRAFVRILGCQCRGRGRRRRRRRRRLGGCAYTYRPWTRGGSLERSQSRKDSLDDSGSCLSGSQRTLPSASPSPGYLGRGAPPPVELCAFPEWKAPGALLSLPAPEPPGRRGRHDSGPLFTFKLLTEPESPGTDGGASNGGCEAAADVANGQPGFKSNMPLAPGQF
D3, sequence (P35462 whole entry): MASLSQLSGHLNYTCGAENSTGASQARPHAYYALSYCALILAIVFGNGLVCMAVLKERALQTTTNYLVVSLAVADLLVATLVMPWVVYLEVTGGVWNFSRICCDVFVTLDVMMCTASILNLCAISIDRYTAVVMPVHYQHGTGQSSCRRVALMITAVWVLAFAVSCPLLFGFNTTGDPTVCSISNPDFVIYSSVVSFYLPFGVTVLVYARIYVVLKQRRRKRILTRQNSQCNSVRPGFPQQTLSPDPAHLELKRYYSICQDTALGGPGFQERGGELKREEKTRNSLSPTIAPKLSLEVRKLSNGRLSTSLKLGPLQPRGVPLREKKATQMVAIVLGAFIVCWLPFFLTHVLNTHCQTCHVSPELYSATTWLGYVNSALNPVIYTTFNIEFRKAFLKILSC
KOR, sequence (P41145 whole entry): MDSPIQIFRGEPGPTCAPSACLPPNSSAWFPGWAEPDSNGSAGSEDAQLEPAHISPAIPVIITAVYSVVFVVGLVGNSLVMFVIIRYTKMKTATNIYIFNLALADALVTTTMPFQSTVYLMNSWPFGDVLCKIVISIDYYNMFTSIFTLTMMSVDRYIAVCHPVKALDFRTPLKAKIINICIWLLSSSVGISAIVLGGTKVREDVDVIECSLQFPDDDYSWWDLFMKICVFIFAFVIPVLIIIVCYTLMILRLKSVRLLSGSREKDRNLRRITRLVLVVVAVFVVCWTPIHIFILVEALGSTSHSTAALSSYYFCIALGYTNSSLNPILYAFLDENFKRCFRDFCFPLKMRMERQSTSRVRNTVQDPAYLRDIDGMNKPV
NET, sequence (P23975 whole entry): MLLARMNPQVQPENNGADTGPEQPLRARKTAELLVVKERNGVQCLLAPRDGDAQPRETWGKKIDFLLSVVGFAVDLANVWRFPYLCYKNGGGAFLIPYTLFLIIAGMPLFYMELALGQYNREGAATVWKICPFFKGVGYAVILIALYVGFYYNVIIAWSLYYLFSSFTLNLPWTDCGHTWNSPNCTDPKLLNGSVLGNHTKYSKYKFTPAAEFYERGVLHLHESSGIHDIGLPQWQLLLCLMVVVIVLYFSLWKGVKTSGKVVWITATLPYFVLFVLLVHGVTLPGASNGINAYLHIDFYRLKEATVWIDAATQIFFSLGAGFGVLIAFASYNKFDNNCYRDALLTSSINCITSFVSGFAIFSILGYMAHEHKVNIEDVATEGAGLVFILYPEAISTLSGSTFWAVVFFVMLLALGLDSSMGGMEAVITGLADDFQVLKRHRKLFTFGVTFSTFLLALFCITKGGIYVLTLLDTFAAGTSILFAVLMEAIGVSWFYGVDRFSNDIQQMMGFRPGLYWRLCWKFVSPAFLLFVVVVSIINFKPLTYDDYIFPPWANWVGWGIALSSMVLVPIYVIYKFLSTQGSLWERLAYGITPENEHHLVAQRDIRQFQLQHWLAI
M4, sequence (P08173 whole entry): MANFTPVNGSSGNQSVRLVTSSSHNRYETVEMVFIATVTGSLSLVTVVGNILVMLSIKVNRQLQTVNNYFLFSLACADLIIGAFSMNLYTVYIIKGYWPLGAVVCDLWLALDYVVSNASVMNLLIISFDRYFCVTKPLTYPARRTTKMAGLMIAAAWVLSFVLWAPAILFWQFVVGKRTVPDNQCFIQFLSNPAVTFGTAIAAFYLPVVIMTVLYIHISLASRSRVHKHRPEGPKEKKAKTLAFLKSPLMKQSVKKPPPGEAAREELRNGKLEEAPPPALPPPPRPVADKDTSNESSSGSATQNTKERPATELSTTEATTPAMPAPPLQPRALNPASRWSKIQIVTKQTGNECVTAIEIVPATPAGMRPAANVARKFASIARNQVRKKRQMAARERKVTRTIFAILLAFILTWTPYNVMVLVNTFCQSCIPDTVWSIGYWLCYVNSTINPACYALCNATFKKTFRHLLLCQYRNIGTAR
PBD1, sequence (P53350 371-594 limits assumed): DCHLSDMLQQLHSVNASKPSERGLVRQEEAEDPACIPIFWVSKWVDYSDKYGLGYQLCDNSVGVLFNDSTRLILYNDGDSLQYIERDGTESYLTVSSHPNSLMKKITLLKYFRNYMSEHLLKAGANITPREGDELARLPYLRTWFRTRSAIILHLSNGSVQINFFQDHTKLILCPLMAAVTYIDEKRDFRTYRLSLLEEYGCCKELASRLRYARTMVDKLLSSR

O=c1c2sc(Cl)cc2n2c(=S)[nH]nc2n1CC1CC1 [Compound 19, 7-Chloro-4-(cyclopropylmethyl)-1-thioxo-2,4-dihydrothieno[2,3-e][1,2,4]triazolo[4,3-a]pyrimidin-5 (1H)-one]
IC50 [1]: 1400 ± 30 nM
Primary screen AVE (% inhib) ± SD (M4): -8.8 ± 4.8 % inhib
Primary screen AVE (% inhib) ± SD (SERT): -28.9 ± 28.7 % inhib
Primary screen AVE (% inhib) ± SD (KOR): -0.3 ± 8.7 % inhib
Primary screen AVE (% inhib) ± SD (Beta2): -2.1 ± 19.7 % inhib
Primary screen AVE (% inhib) ± SD (H3): -18.5 ± 3.8 % inhib
Primary screen AVE (% inhib) ± SD (Alpha1B): -7.7 ± 9.7 % inhib
Ki (BZP Rat brain site): > 10 µM
Primary screen AVE (% inhib) ± SD (BZP Rat brain site): 2.3 ± 21.8 % inhib
Primary screen AVE (% inhib) ± SD (D3): -7.0 ± 21.7 % inhib
Cell efficacy (GI50) Mean ± SD ([2]; N.S. = Not significant): N.S.
IC50 (PBD1): 2.53 ± 0.18 nM
Primary screen AVE (% inhib) ± SD (H4): -4.5 ± 11.4 % inhib
Primary screen AVE (% inhib) ± SD (5-HT2A): 37.0 ± 10.4 % inhib
Ki (PBR): > 10 µM
Primary screen AVE (% inhib) ± SD (PBR): 5.3 ± 8.3 % inhib
Primary screen AVE (% inhib) ± SD (NET): -39.3 ± 20.6 % inhib
Plk2 PBD IC50 ± SD (Plk2 PBD): N.S.
Plk3 PBD IC50 ± SD (Plk3 PBD): N.S.
Primary screen AVE (% inhib) ± SD (D4): -24.3 ± 4.4 % inhib
Primary screen AVE (% inhib) ± SD (M3): 7.5 ± 45.6 % inhib
Primary screen AVE (% inhib) ± SD (H2): -27.4 ± 17.1 % inhib

Cn1cnc([N+](=O)[O-])c1Sc1nnc2n(CC3CC3)c(=O)c3sc(Cl)cc3n12 [Compound 20, 7-Chloro-4-(cyclopropylmethyl)-1-((1-methyl-4-nitro-1H-imidazol-5-yl)thio) thieno[2,3-e][1,2,4]triazolo[4,3-a]pyrimidin-5 (4H)-one]
IC50 [1]: > 25000 nM
Primary screen AVE (% inhib) ± SD (M4): -8.7 ± 9.5 % inhib
Primary screen AVE (% inhib) ± SD (SERT): -56.0 ± 13.9 % inhib
Primary screen AVE (% inhib) ± SD (KOR): 3.7 ± 4.1 % inhib
Primary screen AVE (% inhib) ± SD (Beta2): 0.1 ± 10.6 % inhib
Primary screen AVE (% inhib) ± SD (H3): -12.5 ± 7.9 % inhib
Primary screen AVE (% inhib) ± SD (Alpha1B): -1.6 ± 9.5 % inhib
Ki (BZP Rat brain site): > 10 µM
Primary screen AVE (% inhib) ± SD (BZP Rat brain site): 9.5 ± 7.6 % inhib
sensitivity of Plk1 with F559 mutated to a charged residue to treatment [3]: insensitive
Primary screen AVE (% inhib) ± SD (D3): 12.8 ± 12.8 % inhib
GI50 ([2]; Homo sapiens, L-363, N.S. = Not significant, read-out: Cell efficacy (GI50) Mean ± SD): 4.09 ± 0.14 µM
Primary screen AVE (% inhib) ± SD (H4): 8.2 ± 3.1 % inhib
Ki (5-HT2A): 9.2 µM
Primary screen AVE (% inhib) ± SD (5-HT2A): 52.4 ± 11.8 % inhib
Ki (PBR): > 10 µM
Primary screen AVE (% inhib) ± SD (PBR): -2.1 ± 5.3 % inhib
Primary screen AVE (% inhib) ± SD (NET): -56.8 ± 10.5 % inhib
Primary screen AVE (% inhib) ± SD (D4): 12.6 ± 4.9 % inhib
Primary screen AVE (% inhib) ± SD (M3): 48.3 ± 21.9 % inhib
effect of inhibition of PBD1-dependent interactions and subcellular localizations (Hela cells): mitotic block
Primary screen AVE (% inhib) ± SD (H2): -16.4 ± 21.5 % inhib
